Activity calls are given as the source filed them. The rule behind the calls is not given here.
How the values were obtained:
[1] = Antiinflammatory activity in mouse J774A1 cells assessed as inhibition of LPS-stimulated NO production pretreated for 2 hrs followed by LPS addition measured after 18 hrs post LPS challenge by spectrophotometry; format: functional, cell-based; conditions: J774.A1
J774.A1 = experiment: Antiinflammatory activity in mouse J774A1 cells assessed as inhibition of LPS-stimulated NO production pretreated at 10 uM for 2 hrs followed by LPS addition measured after 18 hrs post LPS challenge by spectrophotometry; format: functional, cell-based
[2] = Cytotoxicity against mouse J774A1 cells by MTT assay; format: cell-based; conditions: j774.a1

| IC50 [1] | Compound | Activity [2] | also measured |
| --- | --- | --- | --- |
| 3600 nM | O=C1C[C@@H](O)[C@@H](O)[C@@H]2C1=CCCC21Oc2cccc3cccc(c23)O1 | – | – |
| – | OC1C=CC(O)C2C1C(O)CCC21Oc2cccc3cccc(c23)O1 (stereo not given) | – | inhibition (J774.A1): inactive |
| – | O=C1C=C[C@@H](O)[C@@H]2C1=CCCC21Oc2cccc3cccc(c23)O1 | Toxic | – |
| – | CO[C@@H]1CC(=O)C2=CCCC3(Oc4cccc5cccc(c45)O3)[C@@H]2[C@@H]1O | Toxic | – |
| 310 nM | O=C1C[C@H](O)[C@@H](O)[C@@H]2C1=CCCC21Oc2cccc3cccc(c23)O1 | – | – |
